# Results: patent US5320955A, “10'desmethoxystreptonigrin production by Streptomyces albus” (priority 1992, dated 1994)
# “And” between values parts separate entries of the source, which are not always exact repeats. Equal values may be shown once. Read-outs that look alike come from different tables or passages of the source.
# Assays:
# [1] = system: HCT/VP35 human colon cells; test: In vitro cytotoxicity vs. human tumor cell lines; type: cell-based; conditions: in triplicate, each printed
# Method: (§1) 10'-Desmethoxystreptonigrin was also tested for cytotoxicity in vitro against human tumor cell lines according to the method of Catino et al., "A microtitre cytotoxicity assay useful for the discovery of fermentation derived antitumor agents", Cancer Chemother., Pharmacol. 15: 240-243 (1985). Modification of the dye employed therein was made according to Scudiero et al., "Evaluation of a soluble tetrazolium/formazan assay for cell growth and drug sensitivity in culture using human and other tumor cell lines," Cancer Research 48:4827-4833,1 (1988). The assays were performed in triplicate against human ovarian (A2780DDP and A2780S) and colon (HCT-116, HCT/VM46 and HCT/VP35) tumor cell lines. Such cell lines are, for example, described by Long et al., "The effects of mitomycin on human colon carcinoma cells," J. Nat. Cancer Inst. 73: 787-792 (1984) (HCT-116) and Masuda et al., "Increased DNA repair as a mechanism of acquired resistance to cis-diamminedichloroplatinum (II) in human ovarian cancer cell lines," Cancer Research 48: 5713-5716 (1988) (A2780 ).
# [2] = system: HCT-116 human colon cells; test: In vitro cytotoxicity vs. human tumor cell lines; type: cell-based; conditions: in triplicate, each printed
# Method: as §1
# [3] = system: HCT/VM46 human colon cells; test: In vitro cytotoxicity vs. human tumor cell lines; type: cell-based; conditions: HCT/VM46, resistant to teniposide, in triplicate, each printed
# Method: as §1
# [4] = biological target: protein-cysteine farnesyltransferase; test: Inhibition of farnesylation of p21 ras protein; type: biochemical; conditions: assay of Manne et al.; read-out: IC50 in inhibiting the farnesylation of p21 ras protein
# Serratia marcescens = test: Antibacterial activity in vitro, agar dilution MIC; type: cell-based; conditions: SC9783, strain SC# 9783, 37° C., 18 hours, read-out: Minimum Inhibitory Concentration (MIC)
# Method: (§2) The following methodology was used to determine the minimum inhibitory concentration (hereinafter referred to as MIC) of 10'-desmethoxystreptonigrin against bacteria. The test organisms were grown in 20 ml of Antiobiotic Assay Broth (Difco) by inoculating the broth (in tubes) with a loopful of the organism from a BHI (Difco) agar slant. The inoculated tubes were incubated at 37° C. for 18 to 24 hours. These cultures were assumed to contain 10^9 colony forming units (CFU) per ml. The cultures were diluted 1:100 to give a final inoculum level of 10^7 CFU; dilutions were made with Yeast-Beef Broth (Difco). The test compound was dissolved in an appropriate diluent at a concentration of 1,000 μg/ml. Two-fold dilutions were made in Yeast-Beef Broth (Difco), resulting in a range from 1000 μg/ml to 0.5 μg/ml. A 1.5 ml portion of each dilution was placed into individual petri dishes to which 13.5 ml of K-10 agar was added. The composition of K-10 agar is:
# (§3) The medium was sterilized at 121° C. for 15 minutes at 15 lbs. psi.
# (§4) The final drug concentration in the agar ranged from 100 μg/mL to 0.05 μg/mL. Organism growth control plates containing agar only were prepared and inoculated before and after the test plates. The organisms were applied to the agar surface of each plate with a Denly Multipoint Inoculator (which delivers approximately 0.001 mL of each inoculum) resulting in a final inoculum of 10^4 CFU on the agar plate.
# (§5) The plates were incubated at 37° C. for 18 hours and the MICs determined. The MIC is the lowest concentration of compound inhibiting growth of the organism.
# Proteus vulgaris = test: Antibacterial activity in vitro, agar dilution MIC; type: cell-based; conditions: SC9416, strain SC# 9416, 37° C., 18 hours, read-out: Minimum Inhibitory Concentration (MIC)
# Method: as §2, §3, §4, §5
# Mycobacterium fortuitum = test: Antibacterial activity in vitro, agar dilution MIC; type: cell-based; conditions: Mycolicibacterium fortuitum, SC8571; strain SC# 8571; 37° C., 18 hours; read-out: Minimum Inhibitory Concentration (MIC)
# Method: as §2, §3, §4, §5
# Streptococcus faecalis = test: Antibacterial activity in vitro, agar dilution MIC; type: cell-based; conditions: Enterococcus faecalis, 37° C., 18 hours, read-out: Minimum Inhibitory Concentration (MIC)
# Method: as §2, §3, §4, §5
# Pseudomonas aeruginosa = test: Antibacterial activity in vitro, agar dilution MIC; type: cell-based; conditions: read-out: Minimum Inhibitory Concentration (MIC)
# Method: as §2, §3, §4, §5
# Escherichia coli = test: Antibacterial activity in vitro, agar dilution MIC; type: cell-based; conditions: 18 hours, read-out: Minimum Inhibitory Concentration (MIC)
# Method: as §2, §3, §4, §5
# Proteus mirabilis = test: Antibacterial activity in vitro, agar dilution MIC; type: cell-based; conditions: SC3855, strain SC# 3855, 37° C., 18 hours, read-out: Minimum Inhibitory Concentration (MIC)
# Method: as §2, §3, §4, §5
# Acinetobacter anitratus = test: Antibacterial activity in vitro, agar dilution MIC; type: cell-based; conditions: Acinetobacter calcoaceticus, SC14207; strain SC# 14207; 37° C., 18 hours; read-out: Minimum Inhibitory Concentration (MIC)
# Method: as §2, §3, §4, §5
# Listerella monocytogenes = test: Antibacterial activity in vitro, agar dilution MIC; type: cell-based; conditions: strain SC# 8523; 37° C., 18 hours; read-out: Minimum Inhibitory Concentration (MIC)
# Method: as §2, §3, §4, §5
# Staphylococcus aureus = test: Antibacterial activity in vitro, agar dilution MIC; type: cell-based; conditions: 18 hours, read-out: Minimum Inhibitory Concentration (MIC)
# Method: as §2, §3, §4, §5
# Bacillus subtilis = test: Antibacterial activity in vitro, agar dilution MIC; type: cell-based; conditions: SC3777, strain SC# 3777, 37° C., 18 hours, read-out: Minimum Inhibitory Concentration (MIC)
# Method: as §2, §3, §4, §5
# Klebsiella pneumoniae = test: Antibacterial activity in vitro, agar dilution MIC; type: cell-based; conditions: 18 hours, read-out: Minimum Inhibitory Concentration (MIC)
# Method: as §2, §3, §4, §5
# Micrococcus luteus = test: Antibacterial activity in vitro, agar dilution MIC; type: cell-based; conditions: SC2495, strain SC# 2495, 37° C., 18 hours, read-out: Minimum Inhibitory Concentration (MIC)
# Method: as §2, §3, §4, §5
# Enterobacter cloacae = test: Antibacterial activity in vitro, agar dilution MIC; type: cell-based; conditions: SC8236, strain SC# 8236, 37° C., 18 hours, read-out: Minimum Inhibitory Concentration (MIC)
# Method: as §2, §3, §4, §5
# Streptococcus agalactiae = test: Antibacterial activity in vitro, agar dilution MIC; type: cell-based; conditions: 18 hours, read-out: Minimum Inhibitory Concentration (MIC)
# Method: as §2, §3, §4, §5
# [5] = system: Acinetobacter calcoaceticus; test: Antibacterial activity in vitro, agar dilution MIC; type: cell-based; conditions: SC8333, strain SC# 8333, 37° C., 18 hours, read-out: Minimum Inhibitory Concentration (MIC)
# Method: as §2, §3, §4, §5
# Nocardia autotrophica = test: Antibacterial activity in vitro, agar dilution MIC; type: cell-based; conditions: Pseudonocardia autotrophica, SC8994; strain SC# 8994; 37° C., 18 hours; read-out: Minimum Inhibitory Concentration (MIC)
# Method: as §2, §3, §4, §5
# Pseudomonas cepacia = test: Antibacterial activity in vitro, agar dilution MIC; type: cell-based; conditions: Burkholderia cepacia, SC14164; strain SC# 14164; 37° C., 18 hours; read-out: Minimum Inhibitory Concentration (MIC)
# Method: as §2, §3, §4, §5
# Enterobacter aerogenes = test: Antibacterial activity in vitro, agar dilution MIC; type: cell-based; conditions: Klebsiella aerogenes, SC10078; strain SC# 10078; 37° C., 18 hours; read-out: Minimum Inhibitory Concentration (MIC)
# Method: as §2, §3, §4, §5
# Shigella sonnei = test: Antibacterial activity in vitro, agar dilution MIC; type: cell-based; conditions: SC8449, strain SC# 8449, 37° C., 18 hours, read-out: Minimum Inhibitory Concentration (MIC)
# Method: as §2, §3, §4, §5
# Salmonella typhosa = test: Antibacterial activity in vitro, agar dilution MIC; type: cell-based; conditions: Salmonella enterica, SC1195 / TYPHOSA; strain SC# 1195; 37° C., 18 hours; read-out: Minimum Inhibitory Concentration (MIC)
# Method: as §2, §3, §4, §5
# P388 murine leukemia = test: In vivo tests in mice, intraperitoneally implanted P388 murine leukemia model; conditions: intraperitoneally implanted P388, nontoxic levels
# Text: ^+ In vivo tests in mice using the intraperitoneally implanted P388
# lifespan compared to control groups at nontoxic levels of
# 10desmethoxystreptonigrin.
# [6] = system: A2780S human ovarian cells; test: cells; type: cell-based
# Method: as §1
# tumor = conditions: background statement; cited from earlier work
# [7] = background statement; cited from earlier work
compound,measurement,setting,value
"COC1=C(N)C(=O)c2nc(-c3nc(C(=O)O)c(C)c(-c4cccc(OC)c4O)c3N)ccc2C1=O [10'-Desmethoxystreptonigrin, 5'-amino-6'-(7-amino-5,8-dihydro-6-methoxy-5,8-dioxo-2-quinolyl)-4'-(8'-hydroxy-9'-methoxyphenyl)-3'-methyl-2'-pyridinecarboxylic acid]",IC50 cytotoxicity,"[1]; HCT/VP35, resistant to etoposide",0.002 µg/mL
same,IC50,"[1]; Homo sapiens, HCT/VP35, HCT/VP35, resistant to etoposide",0.003 µg/mL
same,IC50 cytotoxicity,[2]; HCT-116,0.003 µg/mL
same,IC50,"[2]; Homo sapiens, HCT-116, HCT-116",0.006 µg/mL
same,IC50 cytotoxicity,[3],0.002 µg/mL and < 0.001 µg/mL
same,IC50,[3]; Homo sapiens,0.001 µg/mL
same,IC50,[4],23.5 µM
same,MIC,Serratia marcescens,6.3 µg/mL
same,MIC,Proteus vulgaris,0.4 µg/mL
same,MIC,Mycobacterium fortuitum,50 µg/mL
same,MIC,"Streptococcus faecalis; SC9011, strain SC# 9011",1.6 µg/mL
same,MIC,"Streptococcus faecalis; SC9610, strain SC# 9610",1.6 µg/mL
same,MIC,"Pseudomonas aeruginosa; SC8329, 18 h",6.3 µg/mL
same,MIC,"Pseudomonas aeruginosa; SC9545, strain SC# 9545, 37° C., 18 hours",1.6 µg/mL
same,MIC,"Escherichia coli; SC8294, strain SC# 8294, 37° C.",3.1 µg/mL
same,MIC,"Escherichia coli; SC10857, strain SC# 10857, 37° C.",0.8 µg/mL
same,MIC,"Escherichia coli; SC10896, strain SC# 10896, 37° C.",0.4 µg/mL
same,MIC,"Escherichia coli; SC10909, strain SC# 10909, 37° C.",< 0.05 µg/mL
same,MIC,"Escherichia coli; SC12864, strain SC# 12864, 37° C.",1.6 µg/mL
same,MIC,Proteus mirabilis,3.1 µg/mL
same,MIC,Acinetobacter anitratus,3.1 µg/mL
same,MIC,Listerella monocytogenes,1.6 µg/mL
same,MIC,"Staphylococcus aureus; SC1276, strain SC# 1276, 37° C.",0.4 µg/mL
same,MIC,"Staphylococcus aureus; SC2399, strain SC# 2399, 37° C.",0.2 µg/mL
same,MIC,"Staphylococcus aureus; SC2400, strain SC# 2400, 37° C.",0.2 µg/mL
same,MIC,"Staphylococcus aureus; SC10165, strain SC# 10165, 37° C.",0.2 µg/mL
same,MIC,Bacillus subtilis,0.2 µg/mL
same,MIC,"Klebsiella pneumoniae; SC9527, strain SC# 9527, 37° C.",3.1 µg/mL
same,MIC,"Klebsiella pneumoniae; SC10440, strain SC# 10440, 37° C.",3.1 µg/mL
same,MIC,Micrococcus luteus,0.4 µg/mL
same,MIC,Enterobacter cloacae,> 100 µg/mL
same,MIC,"Streptococcus agalactiae; SC9287, strain SC# 9287, 37° C.",1.6 µg/mL
same,MIC,"Streptococcus agalactiae; SC14008, strain SC# 14008, 37° C.",1.6 µg/mL
same,MIC,[5],> 100 µg/mL
same,MIC,Nocardia autotrophica,3.1 µg/mL
same,MIC,Pseudomonas cepacia,> 25 µg/mL
same,MIC,Enterobacter aerogenes,25 µg/mL
same,MIC,Shigella sonnei,1.6 µg/mL
same,MIC,Salmonella typhosa,1.6 µg/mL
same,increase in lifespan compared to control groups,P388 murine leukemia,no statistically significant increase
same,IC50,"[6]; Homo sapiens, read-out: IC50 cytotoxicity, A2780S, in triplicate, each printed",0.001 µg/mL
same,IC50 cytotoxicity,"[6]; in triplicate, each printed",0.002 µg/mL and < 0.001 µg/mL
"COC1=C(N)C(=O)c2nc(-c3nc(C(=O)O)c(C)c(-c4ccc(OC)c(OC)c4O)c3N)ccc2C1=O [streptonigrin, 5'-amino-6'-(7-amino-5,-8-dihydro-6-methoxy-5,8-dioxo-2-quinolyl)-4'-(8'-hydroxy-9',10'-dimethoxyphenyl)-3'-methyl-2'-pyridinecarboxylic acid]",activity as an antitumor antibiotic,tumor,has shown activity as an antitumor antibiotic
same,"toxic effect, for example, in bone marrow depression",[7],significant toxic effect
